The test system of one test is Ovariectomized rats. As to the kind of experiment: Vaginal keratinization test on ovariectomized rats (Example C.2). Format: in vivo. To be noted: estradiol undecylate induced keratinization, per os once daily on days 1-3, active dose = 50% of rats show complete suppression. Summed up: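 Ovariectomized rats given s.c. estradiol undecylate (100 μg per 100 g body weight in sesame oil), then oral compound once daily on days 1-3 (vehicle PEG 200). Vaginas assessed histologically one day after last dose; lowest active dose (mg/kg) is the dose giving complete keratinization suppression in 50% of rats.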

Test [1] concerns metabolism of retinoic acid in human breast cancer cells. Nature of the test: Inhibition of retinoic acid (RA) metabolism (Example C.1). To be noted: MCF-7 human breast cancer cells, 3H-RA as substrate; concentration needed to reduce the amount of metabolites to 50% of the control. The class given is cell-based. The source says:
The property to delay the metabolism of retinoic acid can be evidenced in various in vitro and in vivo experiments. A particular in vitro procedure is described in example C.1 and tests the inhibitory activity of the compounds of formula (I) on the metabolism of retinoic acid in human breast cancer cells. The compounds of the present invention were also effective in suppressing induced vaginal keratinization effects in ovariectomized rats as is described in example C.2.
Inhibition of Retinoic Acid (RA) Metabolism
MCF-7 human breast cancer cells were grown as stock cultures according to art-known protocols. One day before the experiment, RA is added to the stock cultures to stimulate RA-metabolism. At the start of the experiment, cell suspensions were incubated in a tissue culture medium containing ^3H-RA as the substrate. Different concentrations of the test compound (dissolved in 1% DMSO) were added to the incubation mixtures, and at the end of the incubation, the unmetabolized RA is separated from its polar metabolites. The fraction containing the polar ^3H-labelled metabolites was collected and counted in a scintillation counter. For each experiment, a control and a blank incubation were run in parallel. Table 22 list the IC50 value (defined as the concentration in M needed to reduce the amount of metabolites to 50% of the control).

The text below walks through data of patent US7179825B2, “Retinoic acid mimetic anilides” (Janssen Pharmaceutica N.V., priority 1997, dated 2007).

For orientation: IC50 means the concentration needed to halve the response being measured. For `CCC(CC)C(c1ccc(NC(=O)/C(C)=C/c2ccccc2)cc1)n1cncn1` (racemic) [Compound 2], in the test on Ovariectomized rats, the “LAD (lowest active dose)” value was found to be 5.00 mg/kg. The IC50 in test [1] was determined as 0.03 nM.

In the case of `CCC(CC)C(c1ccc(NC(=O)Cc2ccc3c(c2)OCO3)cc1)n1cncn1` (racemic) [Compound 5], the “LAD (lowest active dose)” value in the test with Ovariectomized rats is reported as above 2.50 mg/kg. For the same compound, the IC50 in test [1] was determined as 0.27 nM.

For the compound `CCC(CC)C(c1ccc(NC(=O)c2ccc(OC)c(OC)c2)cc1)n1cncn1` (racemic) [Compound 6], the “LAD (lowest active dose)” value in the test on Ovariectomized rats was 2.50 mg/kg. The IC50 in test [1] stood at 1.65 nM.

With `CCC(CC)C(c1ccc(NC(=O)Cc2ccc3c(c2)OCCO3)cc1)n1cncn1` (racemic) [Compound 7], the “LAD (lowest active dose)” value in the test on Ovariectomized rats was above 2.50 mg/kg. Also, the half-inhibitory concentration (IC50) in test [1] amounted to 0.79 nM.

For `CCC(CC)C(c1ccc(NC(=O)CCc2ccc(OC)c(OC)c2)cc1)n1cncn1` (racemic) [Compound 10], in the test on Ovariectomized rats, the “LAD (lowest active dose)” value was found to be 2.50 mg/kg. Moreover, the IC50 in test [1] came out at 1.55 nM.

Turning to `CCC(CC)C(c1ccc(NC(=O)C(O)c2ccc(Cl)cc2)cc1)n1cncn1` (racemic) [Compound 18, (±)-(A2)-4-chloro-N-[4-[2-ethyl)-1-(1H-1,2,4-triazol-1-yl)butyl]phenyl]-α-hydroxybenzeneacetamide], the “LAD (lowest active dose)” value in the test with Ovariectomized rats is 2.50 mg/kg. For the same compound, in test [1], the IC50 is 0.872 nM.

As to `CCC(CC)C(c1ccc(NC(=O)c2ccccc2)cc1)n1ccnc1` (racemic) [Compound 22], the “LAD (lowest active dose)” value in the test on Ovariectomized rats was determined as 2.50 mg/kg. Moreover, the IC50 in test [1] stood at 1.04 nM.

For `CCC(CC)C(c1ccc(NC(=O)C(C)(C)O)cc1)n1ccnc1` (racemic) [Compound 24], in the test on Ovariectomized rats, the “LAD (lowest active dose)” value came to 2.50 mg/kg. In addition, the IC50 in test [1] turned out to be 1.37 nM.

With `CCC(CC)C(c1ccc(NC(=O)C2=COc3ccccc3O2)cc1)n1ccnc1` (racemic) [Compound 25], in the test with Ovariectomized rats, the “LAD (lowest active dose)” value was 10.00 mg/kg. Also, the IC50 in test [1] is 61 nM.

In the case of `CCC(CC)C(c1ccc(NC(=O)c2cnccn2)cc1)n1ccnc1` (racemic) [Compound 27], the “LAD (lowest active dose)” value in the test on Ovariectomized rats worked out at 5.00 mg/kg. In addition, the IC50 in test [1] was 0.232 nM.

For the compound `CCC(CC)C(c1ccc(NC(=O)Cc2ccc3c(c2)OCO3)cc1)n1ccnc1` (racemic) [Compound 28], in the test on Ovariectomized rats, the “LAD (lowest active dose)” value is given as 2.50 mg/kg. Also, in test [1], the IC50 stood at 2.76 nM.

`CCC(CC)C(c1ccc(NC(=O)c2ccc3c(c2)C(C)(C)CCC3(C)C)cc1)n1ccnc1` (racemic) [Compound 30]: in the test with Ovariectomized rats, the “LAD (lowest active dose)” value is recorded as above 5.00 mg/kg. For the same compound, in test [1], the IC50 amounted to 25.8 nM.

Consider `CCC(CC)C(c1ccc(NC(=O)C2=Cc3ccccc3OC2)cc1)n1ccnc1` (racemic) [Compound 31], for which the “LAD (lowest active dose)” value with Ovariectomized rats was 5.00 mg/kg. For the same compound, the IC50 in test [1] is 2.63 nM.

`CCC(CC)C(c1ccc(NC(=O)CCc2ccc(OC)c(OC)c2)cc1)n1ccnc1` (racemic) [Compound 32]: the “LAD (lowest active dose)” value with Ovariectomized rats is 5.00 mg/kg. For the same compound, the IC50 in test [1] came out at 0.697 nM.

Regarding `CCOc1ccc(C(=O)Nc2ccc(C(C(CC)CC)n3ccnc3)cc2)cc1` (racemic) [Compound 35], in the test on Ovariectomized rats, the “LAD (lowest active dose)” value is on record as 2.50 mg/kg. Besides, the IC50 in test [1] is 2.24 nM.

With `CCC(CC)C(c1ccc(NC(=O)Cc2ccc3c(c2)OCCO3)cc1)n1ccnc1` (racemic) [Compound 36], in the test on Ovariectomized rats, the “LAD (lowest active dose)” value stood at 5.00 mg/kg. Besides, the IC50 in test [1] was found to be 1.43 nM.

With `CCC(CC)C(c1ccc(NC(=O)COc2ccccc2OC)cc1)n1ccnc1` (racemic) [Compound 37], the “LAD (lowest active dose)” value with Ovariectomized rats is reported as 5.00 mg/kg. Moreover, the IC50 in test [1] was 1 nM.

Regarding `CCC(CC)C(c1ccc(NC(=O)Cc2ccc3c(c2)C(C)(C)CCC3(C)C)cc1)n1ccnc1` (racemic) [Compound 38], in the test on Ovariectomized rats, the “LAD (lowest active dose)” value is given as 5.00 mg/kg. In test [1], the IC50 amounted to 1.04 nM.

For `CCOc1ccc(CCC(=O)Nc2ccc(C(C(CC)CC)n3ccnc3)cc2)cc1` (racemic) [Compound 39], the “LAD (lowest active dose)” value in the test with Ovariectomized rats is 0.60 mg/kg. The IC50 in test [1] came out at 0.104 nM.

Consider `CCC(CC)C(c1ccc(NC(=O)c2ccc(OC)nc2)cc1)n1ccnc1` (racemic) [Compound 45], for which, in the test with Ovariectomized rats, the “LAD (lowest active dose)” value came to 2.50 mg/kg. For the same compound, the 50% inhibitory concentration (IC50) in test [1] turned out to be 0.172 nM.

`CCC(CC)C(c1ccc(NC(=O)C2CCN(C(=O)c3ccccc3)CC2)cc1)n1ccnc1` (racemic) [Compound 46]: the “LAD (lowest active dose)” value with Ovariectomized rats is on record as above 2.50 mg/kg. The IC50 in test [1] turned out to be 1.95 nM.

Turning to `CCC(CC)C(c1ccc(NC(=O)CN2CCOCC2)cc1)n1ccnc1` (racemic) [Compound 47], the “LAD (lowest active dose)” value in the test on Ovariectomized rats was 2.50 mg/kg. The IC50 in test [1] came to 1.33 nM.

With `CCOc1ccc(CCCC(=O)Nc2ccc(C(C(CC)CC)n3ccnc3)cc2)cc1` (racemic) [Compound 48], the “LAD (lowest active dose)” value in the test with Ovariectomized rats was found to be 2.50 mg/kg. For the same compound, in test [1], the IC50 is 0.569 nM.

With `CCC(CC)C(c1ccc(NC(=O)COc2ccccc2O)cc1)n1ccnc1` (racemic) [Compound 49], the “LAD (lowest active dose)” value with Ovariectomized rats came to 2.50 mg/kg. In addition, the IC50 in test [1] is 0.433 nM.

As to `CCC(CC)C(c1ccc(NC(=O)CCCc2ccc(OC)c(OC)c2)cc1)n1ccnc1` (racemic) [Compound 52], in the test with Ovariectomized rats, the “LAD (lowest active dose)” value is on record as 2.50 mg/kg. Also, the IC50 in test [1] came out at 0.907 nM.

Regarding `CCC(CC)C(c1ccc(NC(=O)C2CCN(C(=O)OC(C)(C)C)CC2)cc1)n1ccnc1` (racemic) [Compound 53], the “LAD (lowest active dose)” value in the test with Ovariectomized rats is given as above 2.50 mg/kg. For the same compound, the IC50 in test [1] was 2.12 nM.

On to `CCC(CC)C(c1ccc(NC(=O)Cc2ccc3nc(N)sc3c2)cc1)n1ccnc1` (racemic) [Compound 58], for which the “LAD (lowest active dose)” value in the test with Ovariectomized rats was 5.00 mg/kg. Further, in test [1], the IC50 was below 0.01 nM.

Turning to `CCC(CC)C(c1ccc(NC(=O)Nc2nc3ccccc3s2)cc1)n1cncn1` (racemic) [Compound 63], the “LAD (lowest active dose)” value in the test on Ovariectomized rats is recorded as above 5.00 mg/kg. The IC50 in test [1] was determined as 6.7 nM.

Regarding `CCC(CC)C(c1ccc(NC(=O)Nc2nc3ccccc3s2)cc1)n1ccnc1` (racemic) [Compound 64], the “LAD (lowest active dose)” value in the test on Ovariectomized rats is recorded as above 5.00 mg/kg. For the same compound, the IC50 in test [1] is 6.6 nM.

Regarding `CCC(CC)C(c1ccc(NC(=O)Cc2ccc(C)cc2)cc1)n1cncn1` (racemic) [Compound 65], the “LAD (lowest active dose)” value in the test with Ovariectomized rats turned out to be 5.00 mg/kg. In test [1], the IC50 worked out at 0.379 nM.

Take `CCC(CC)C(c1ccc(NC(=O)Cc2ccc(Cl)cc2)cc1)n1cncn1` (racemic) [Compound 66]: the “LAD (lowest active dose)” value with Ovariectomized rats is reported as 2.50 mg/kg. Moreover, in test [1], the IC50 was determined as 0.356 nM.

`CCC(CC)C(c1ccc(NC(=O)Cc2cccc(O)c2)cc1)n1cncn1` (racemic) [Compound 67]: the “LAD (lowest active dose)” value in the test on Ovariectomized rats is 2.50 mg/kg. Besides, the IC50 in test [1] was 0.334 nM.

For the compound `CCC(CC)C(c1ccc(NC(=O)Cc2ccc(F)cc2)cc1)n1cncn1` (racemic) [Compound 68], in the test on Ovariectomized rats, the “LAD (lowest active dose)” value is on record as 5.00 mg/kg. Also, the IC50 in test [1] was 1.72 nM.

Take `CCC(CC)C(c1ccc(NC(=O)Cc2ccc(O)cc2)cc1)n1cncn1` (racemic) [Compound 69]: the “LAD (lowest active dose)” value in the test with Ovariectomized rats amounted to 2.50 mg/kg. Further, the IC50 in test [1] stood at 0.25 nM.

Turning to `CCC(CC)C(c1ccc(NC(=O)Cc2cccc(OC)c2)cc1)n1cncn1` (racemic) [Compound 70], in the test on Ovariectomized rats, the “LAD (lowest active dose)” value stood at 5.00 mg/kg. In addition, the IC50 in test [1] came to 0.295 nM.

Consider `CCOc1ccc(CC(=O)Nc2ccc(C(C(CC)CC)n3cncn3)cc2)cc1` (racemic) [Compound 71], for which the “LAD (lowest active dose)” value in the test with Ovariectomized rats is above 5.00 mg/kg. Further, the IC50 in test [1] stood at 0.262 nM.

`CCC(CC)C(c1ccc(NC(=O)Cc2ccc(O)c(OC)c2)cc1)n1cncn1` (racemic) [Compound 72]: the “LAD (lowest active dose)” value in the test on Ovariectomized rats is given as 2.50 mg/kg. The IC50 in test [1] came to 1.66 nM.

On to `CCC(CC)C(c1ccc(NC(=O)Cc2ccc(OC)c(OC)c2)cc1)n1cncn1` (racemic) [Compound 73], for which the “LAD (lowest active dose)” value in the test on Ovariectomized rats is on record as above 2.50 mg/kg. The IC50 in test [1] came out at 0.463 nM.

In the case of `CCOc1ccc(CC(=O)Nc2ccc(C(C(CC)CC)n3cncn3)cc2)cc1Cl` (racemic) [Compound 75], in the test with Ovariectomized rats, the “LAD (lowest active dose)” value is reported as 2.50 mg/kg. In addition, in test [1], the IC50 came to 0.417 nM.

For the compound `CCOc1ccc(CC(=O)Nc2ccc(C(C(CC)CC)n3cncn3)cc2)cc1C` (racemic) [Compound 76], the “LAD (lowest active dose)” value with Ovariectomized rats was above 2.50 mg/kg. Besides, the IC50 in test [1] turned out to be 0.588 nM.

For the compound `CCC(CC)C(c1ccc(NC(=O)Cc2ccc(C)c(C)c2)cc1)n1cncn1` (racemic) [Compound 77], the “LAD (lowest active dose)” value in the test with Ovariectomized rats was 2.50 mg/kg. The IC50 in test [1] came to 0.332 nM.

Consider `CCC(CC)C(c1ccc(NC(=O)Cc2ccc(OC)c(C)c2)cc1)n1cncn1` (racemic) [Compound 78], for which the “LAD (lowest active dose)” value in the test with Ovariectomized rats is 1.25 mg/kg. Further, the IC50 in test [1] was 0.227 nM.

Take `CCC(CC)C(c1ccc(NC(=O)Cc2ccc(O)c(Cl)c2)cc1)n1cncn1` (racemic) [Compound 79]: the “LAD (lowest active dose)” value in the test with Ovariectomized rats came to 2.50 mg/kg. In addition, in test [1], the IC50 is 0.0342 nM.

Turning to `CCC(CC)C(c1ccc(NC(=O)Cc2cc(OC)c(OC)c(OC)c2)cc1)n1cncn1` (racemic) [Compound 80], in the test with Ovariectomized rats, the “LAD (lowest active dose)” value is reported as above 2.50 mg/kg. The IC50 in test [1] is 0.0483 nM.
